Experimental data taken from PubChem BioAssay (NCI).
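Cultured in 96-well plates, cells were exposed to test compound for 48 hours across five concentrations. TGI denotes the concentration required for complete inhibition of growth.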

Experiments:
Experiment in all cases: growth of human tumour cells (NCI), 48 h
[1] = tested on: MDA-N
[2] = tested on: SF-295 CNS
[3] = tested on: TK-10 renal
[4] = tested on: SNB-19 CNS
[5] = tested on: RPMI-8226 leukemia
[6] = tested on: CCRF-CEM leukemia
[7] = tested on: HCT-116 colon
[8] = tested on: MDA-MB-435
[9] = tested on: EKVX NSCLC
[10] = tested on: BT-549 breast
[11] = tested on: M14 melanoma
[12] = tested on: HCC-2998 colon
[13] = tested on: NCI/ADR-RES ovarian
[14] = tested on: HOP-92 NSCLC
[15] = tested on: PC-3 prostate
[16] = tested on: HCT-15 colon
[17] = tested on: OVCAR-4 ovarian
[18] = tested on: SK-MEL-5 melanoma
[19] = tested on: OVCAR-5 ovarian
[20] = tested on: KM12 colon
[21] = tested on: COLO 205 colon
[22] = tested on: HL-60(TB) leukemia
[23] = tested on: CAKI-1 renal
[24] = tested on: 786-0 renal
[25] = tested on: SN12C renal
[26] = tested on: HOP-62 NSCLC
[27] = tested on: UACC-257 melanoma
[28] = tested on: NCI-H522 lung
[29] = tested on: T-47D breast
[30] = tested on: K-562 leukemia
[31] = tested on: IGROV1 ovarian
[32] = tested on: SW-620 colon
[33] = tested on: NCI-H460 lung
[34] = tested on: RXF 393 renal
[35] = tested on: HS 578T breast
[36] = tested on: MALME-3M melanoma
[37] = tested on: MOLT-4 leukemia
[38] = tested on: MCF7 breast
[39] = tested on: A549 NSCLC
[40] = tested on: ACHN renal
[41] = tested on: LOX IMVI melanoma
[42] = tested on: SK-MEL-28 melanoma
[43] = tested on: UO-31 renal
[44] = tested on: OVCAR-3 ovarian
[45] = tested on: HT29 colon
[46] = tested on: NCI-H226 lung
[47] = tested on: SR leukemia
[48] = tested on: UACC-62 melanoma
[49] = tested on: DU-145 prostate
[50] = tested on: SNB-75 CNS
[51] = tested on: SK-OV-3 ovarian
[52] = tested on: MDA-MB-231 breast
[53] = tested on: NCI-H23 lung
[54] = tested on: SF-539 CNS
[55] = tested on: U251 CNS
[56] = tested on: SK-MEL-2 melanoma
[57] = tested on: SF-268 CNS
[58] = tested on: OVCAR-8 ovarian
[59] = tested on: A498 renal

## CCOC(=O)Cc1ccc(Nc2nc3cc(F)c(F)cc3nc2C(=O)OCC)cc1
[1]
  TGI: > 100 µM
[2]
  TGI: > 100 µM
[3]
  TGI: > 100 µM
[4]
  TGI: > 100 µM
[5]
  TGI: > 100 µM
[6]
  TGI: > 100 µM
[7]
  TGI: > 100 µM
[8]
  TGI: > 100 µM
[9]
  TGI: 56.4 µM
[10]
  TGI: > 100 µM
[11]
  TGI: > 100 µM
[12]
  TGI: 69.6 µM
[13]
  TGI: > 100 µM
[14]
  TGI: 54.6 µM
[15]
  TGI: > 100 µM
[16]
  TGI: > 100 µM
[17]
  TGI: > 100 µM
[18]
  TGI: > 100 µM
[19]
  TGI: > 100 µM
[20]
  TGI: > 100 µM
[21]
  TGI: > 100 µM
[22]
  TGI: > 100 µM
[23]
  TGI: 42.9 µM
[24]
  TGI: > 100 µM
[25]
  TGI: > 100 µM
[26]
  TGI: > 100 µM
[27]
  TGI: > 100 µM
[28]
  TGI: 35.5 µM
[29]
  TGI: > 100 µM
[30]
  TGI: > 100 µM
[31]
  TGI: > 100 µM
[32]
  TGI: > 100 µM
[33]
  TGI: > 100 µM
[34]
  TGI: > 100 µM
[35]
  TGI: > 100 µM
[36]
  TGI: > 100 µM
[37]
  TGI: > 100 µM
[38]
  TGI: > 100 µM
[39]
  TGI: > 100 µM
[40]
  TGI: 33.5 µM
[41]
  TGI: > 100 µM
[42]
  TGI: > 100 µM
[43]
  TGI: 3.15 µM
[44]
  TGI: > 100 µM
[45]
  TGI: > 100 µM
[46]
  TGI: > 100 µM
[47]
  TGI: > 100 µM
[48]
  TGI: > 100 µM
[49]
  TGI: > 100 µM
[50]
  TGI: > 100 µM
[51]
  TGI: > 100 µM
[52]
  TGI: 9.08 µM
[53]
  TGI: 66.5 µM
[54]
  TGI: > 100 µM
[55]
  TGI: > 100 µM
[56]
  TGI: 92.2 µM
[57]
  TGI: > 100 µM
[58]
  TGI: > 100 µM

## CCn1c(=O)c2c3ccc(O)cc3[nH]c2c2ccc(O)cc21
[1]
  TGI: > 100 µM
[2]
  TGI: > 100 µM
[3]
  TGI: > 100 µM
[4]
  TGI: > 100 µM
[6]
  TGI: > 100 µM
[7]
  TGI: > 100 µM
[8]
  TGI: > 100 µM
[9]
  TGI: > 100 µM
[10]
  TGI: > 100 µM
[11]
  TGI: > 100 µM
[12]
  TGI: > 100 µM
[13]
  TGI: > 100 µM
[14]
  TGI: > 100 µM
[15]
  TGI: > 100 µM
[16]
  TGI: > 100 µM
[17]
  TGI: > 100 µM
[18]
  TGI: > 100 µM
[19]
  TGI: > 100 µM
[20]
  TGI: > 100 µM
[21]
  TGI: > 100 µM
[23]
  TGI: > 100 µM
[25]
  TGI: > 100 µM
[26]
  TGI: > 100 µM
[27]
  TGI: > 100 µM
[28]
  TGI: > 100 µM
[29]
  TGI: > 100 µM
[30]
  TGI: > 100 µM
[31]
  TGI: > 100 µM
[32]
  TGI: > 100 µM
[34]
  TGI: > 100 µM
[35]
  TGI: > 100 µM
[36]
  TGI: > 100 µM
[37]
  TGI: > 100 µM
[38]
  TGI: > 100 µM
[39]
  TGI: > 100 µM
[40]
  TGI: > 100 µM
[42]
  TGI: > 100 µM
[43]
  TGI: > 100 µM
[44]
  TGI: > 100 µM
[45]
  TGI: > 100 µM
[46]
  TGI: > 100 µM
[47]
  TGI: > 100 µM
[59]
  TGI: > 100 µM
[48]
  TGI: > 100 µM
[49]
  TGI: > 100 µM
[50]
  TGI: > 100 µM
[51]
  TGI: > 100 µM
[52]
  TGI: > 100 µM
[53]
  TGI: > 100 µM
[54]
  TGI: > 100 µM
[55]
  TGI: > 100 µM
[57]
  TGI: > 100 µM
[58]
  TGI: > 100 µM

## COc1ccc(C(SCCO)(c2ccc(OC)cc2)c2ccc(OC)cc2)cc1
[1]
  TGI: 18.1 µM
[2]
  TGI: 39.2 µM
[3]
  TGI: 55 µM
[4]
  TGI: > 100 µM
[6]
  TGI: 66 µM
[7]
  TGI: 29.2 µM
[8]
  TGI: 23.5 µM
[9]
  TGI: 36.5 µM
[10]
  TGI: 38.4 µM
[11]
  TGI: 38.5 µM
[12]
  TGI: 30.5 µM
[13]
  TGI: 49.1 µM
[14]
  TGI: 28.8 µM
[15]
  TGI: 42.3 µM
[16]
  TGI: 44.6 µM
[17]
  TGI: > 100 µM
[18]
  TGI: 24.6 µM
[19]
  TGI: 79.7 µM
[20]
  TGI: 71.1 µM
[21]
  TGI: 25.7 µM
[22]
  TGI: 87.7 µM
[23]
  TGI: > 100 µM
[24]
  TGI: 29.7 µM
[25]
  TGI: 33.9 µM
[26]
  TGI: 44.6 µM
[27]
  TGI: 32.5 µM
[28]
  TGI: 28.2 µM
[29]
  TGI: 33.7 µM
[30]
  TGI: 28.4 µM
[32]
  TGI: 81.1 µM
[33]
  TGI: 35.8 µM
[34]
  TGI: 30.9 µM
[35]
  TGI: 44.7 µM
[36]
  TGI: 34.3 µM
[37]
  TGI: 56.4 µM
[38]
  TGI: 31.6 µM
[39]
  TGI: 69.3 µM
[40]
  TGI: 50.2 µM
[41]
  TGI: 27.1 µM
[42]
  TGI: 38.6 µM
[43]
  TGI: 34.4 µM
[44]
  TGI: 28.4 µM
[45]
  TGI: 46 µM
[46]
  TGI: 32.7 µM
[47]
  TGI: 26.7 µM
[59]
  TGI: 40.1 µM
[48]
  TGI: 30.1 µM
[49]
  TGI: > 100 µM
[50]
  TGI: 61.1 µM
[51]
  TGI: 94.5 µM
[52]
  TGI: 46.6 µM
[53]
  TGI: 45.2 µM
[54]
  TGI: 30.6 µM
[55]
  TGI: 32.6 µM
[56]
  TGI: 31.7 µM
[57]
  TGI: 43.9 µM
[58]
  TGI: 37.7 µM
